Here are results for nine compounds from patent publication US20160257697A1, “THIOPHENE-SUBSTITUTED TETRACYCLIC COMPOUNDS AND METHODS OFUSE THEREOF FOR THE TREATMENT OF VIRAL DISEASES” (priority 2013, published 2016).

The structures appear in SMILES notation. pIC50: −log10 of the molar value. Read-outs that look alike come from different tables or passages of the source.

Test in all cases: microbe, parasite or virus in culture
Common to all, as to format: cell-based, Hepatitis C virus (HCV)

For one test, the system named is HCV replicon 1A. The note with it: HCV replicon 1A, Replicon Assay A. The essentials: (§1)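 Cells seeded 2000/well + compound; 0.5% DMSO, 5% FBS; harvest day 3, lyse. Multiplex TaqMan RT-PCR for replicon (Neo probe) and cyclophilin RNA; amounts from Ct vs log(ng) linear regression of replicon total RNA standards.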
For orientation: Replicon systems follow genome replication, usually without infectious particles.

For another test, the system named is HCV replicon 1AY93H. To be noted: Replicon Assay A. Summed up: as §1
A further test has as its system HCV replicon 2B. The note with it: Replicon Assay A. Summed up:
as §1

Where [1] appears, read: read-out: 1A Y93H IC50, HCV replicon 1A Y93H.
The mark [2] stands for this setting: read-out: 2B IC50, HCV replicon 2B.

Consider `COCc1ccc(C2Oc3cc(-c4cnc([C@@H]5CCCN5C(=O)[C@@H](NC(=O)OC)C(C)C)[nH]4)cc(F)c3-c3cc4cc(-c5cnc([C@@H]6CCCN6C(=O)[C@@H](NC(=O)OC)[C@@H]6C[C@@H](C)O[C@@H](C)C6)[nH]5)ccc4n32)s1` (single isomer, unassigned) [Compound 533], for which the negative logarithm of the IC50 (pIC50) (usually the IC50 on a negative log10 scale, so that one unit is a factor of ten) with HCV replicon 1A was 11.43; with HCV replicon 1AY93H (setting [1]) it was 10.04; with HCV replicon 2B (setting [2]), 9.37.
For `COCc1ccc(C2Oc3cc(-c4cnc([C@@H]5CCCN5C(=O)[C@@H](NC(=O)OC)C(C)C)[nH]4)cc(F)c3-c3cc4cc(-c5cnc([C@@H]6CCCN6C(=O)[C@@H](NC(=O)OC)[C@@H]6C[C@@H](C)O[C@@H](C)C6)[nH]5)ccc4n32)s1` (single isomer, unassigned) [Compound 535], in that order: 11.05, 10.53 and 10.13.
For `COC(=O)NC(C(=O)N1CCC[C@H]1c1ncc(-c2ccc3c(c2)cc2n3C(c3ccc(C4CC4)s3)Oc3cc(-c4cnc([C@@H]5C[C@H]6C[C@H]6N5C(=O)[C@@H](NC(=O)OC)C(C)C)[nH]4)cc(F)c3-2)[nH]1)C1C[C@@H](C)O[C@@H](C)C1` (single isomer, unassigned) [Compound 537], in that order: 11.40, 9.94 and 8.96.
For `COC(=O)N[C@H](C(=O)N1CCC[C@H]1c1ncc(-c2cc(C)c3c(c2)OC(c2cc4c(s2)CCC4)n2c-3cc3cc(-c4cnc([C@@H]5CCCN5C(=O)[C@@H](NC(=O)OC)C5CCOCC5)[nH]4)ccc32)[nH]1)C(C)C` (single isomer, unassigned) [Compound 540], the negative logarithm of the IC50 (pIC50) in the test on HCV replicon 1A (Hepatitis C virus) is 11.07; in the test with HCV replicon 1AY93H (Hepatitis C virus, read-out: 1A Y93H IC50, HCV replicon 1A Y93H), 8.67; in the test with HCV replicon 2B (Hepatitis C virus, read-out: 2B IC50, HCV replicon 2B), 9.83.
Take `CCc1ccc(C2Oc3cc(-c4cnc([C@@H]5CCCN5C(=O)[C@@H](NC(=O)OC)C(C)C)[nH]4)cc(C)c3-c3cc4cc(-c5cnc([C@@H]6CCCN6C(=O)C(NC(=O)OC)C6C[C@@H](C)O[C@@H](C)C6)[nH]5)ccc4n32)s1` (single isomer, unassigned) [Compound 544]: the negative-log IC50 (pIC50) in the test with HCV replicon 1A was 11.08; with HCV replicon 1AY93H (setting [1]), 9.54; with HCV replicon 2B (setting [2]) it was 10.50.
For `CCc1ccc(C2Oc3cc(-c4cnc([C@@H]5CCCN5C(=O)[C@@H](NC(=O)OC)C(C)C)[nH]4)cc(C)c3-c3cc4cc(-c5cnc([C@@H]6CCCN6C(=O)C(NC(=O)OC)C6C[C@@H](C)O[C@H](C)C6)[nH]5)ccc4n32)s1` (single isomer, unassigned) [Compound 546], in that order: 10.86, 9.57 and 10.27.
For `COC(=O)N[C@H](C(=O)N1CCC[C@H]1c1ncc(-c2cc(C)c3c(c2)OC(c2cc4c(s2)CCC4)n2c-3cc3cc(-c4cnc([C@@H]5CCCN5C(=O)[C@@H](NC(=O)OC)C5C[C@@H](C)O[C@@H](C)C5)[nH]4)ccc32)[nH]1)C(C)C` (single isomer, unassigned) [Compound 549], in that order: 11.15, 9.25 and 9.77.
For `COC(=O)N[C@H](C(=O)N1CCC[C@H]1c1ncc(-c2cc(C)c3c(c2)OC(c2cc4c(s2)CCC4)n2c-3cc3cc(-c4cnc([C@@H]5CCCN5C(=O)[C@@H](NC(=O)OC)C5C[C@@H](C)O[C@@H](C)C5)[nH]4)ccc32)[nH]1)C(C)C` (single isomer, unassigned) [Compound 550], in that order: 10.52, 9.81 and 10.36.
For `COC(=O)N[C@H](C(=O)N1CCC[C@H]1c1ncc(-c2cc(F)c3c(c2)OC(c2cc4c(s2)CCC4)n2c-3cc3cc(-c4cnc([C@@H]5C[C@H]6C[C@H]6N5C(=O)[C@@H](NC(=O)OC)C5C[C@@H](C)O[C@@H](C)C5)[nH]4)ccc32)[nH]1)C(C)C` (single isomer, unassigned) [Compound 552], the figures for the negative logarithm of the IC50 (pIC50) with HCV replicon 1A, with HCV replicon 1AY93H (setting [1]) and in the test on HCV replicon 2B (setting [2]) were 11.01, 9.08 and 9.39, respectively.
